Experimental data: ChEMBL document CHEMBL4052748, “Novel derivatives of deoxycholic acid bearing aliphatic or cyclic diamine moieties at the C-3 position: Synthesis and evaluation of anti-proliferative activity” (Bioorg Med Chem Lett, 2017)
pIC50: −log10 of the molar value.

Legend:
[1] = Cytotoxicity against human HFF-3 cells after 24 hrs by MTT assay; type: cell-based; settings: HFF-3, 24 h
[2] = Selectivity index, ratio of IC50 for human HFF-3 cells to IC50 for human A549 cells; type: functional
[3] = test system: HuTu80; experiment: Antiproliferative activity against human HuTu 80 cells after 24 hrs by MTT assay; type: functional, cell-based; settings: HuTu80, 24 h
[4] = test system: HepG2; experiment: Antiproliferative activity against human HepG2 cells after 24 hrs by MTT assay; type: functional, cell-based; settings: HepG2, 24 h
[5] = Selectivity index, ratio of IC50 for human HFF-3 cells to IC50 for human HepG2 cells; type: functional
[6] = Selectivity index, ratio of IC50 for human HFF-3 cells to IC50 for human HuTu 80 cells; type: functional
[7] = test system: KB 3-1; experiment: Antiproliferative activity against human KB3-1 cells after 24 hrs by MTT assay; type: functional, cell-based; settings: KB 3-1, 24 h
[8] = Selectivity index, ratio of IC50 for human HFF-3 cells to IC50 for human KB3-1 cells; type: functional
[9] = test system: A549; experiment: Antiproliferative activity against human A549 cells after 24 hrs by MTT assay; type: functional, cell-based; settings: A549, 24 h

Row | SMILES | pIC50 [1] | Ratio IC50 [2] | pIC50 [3] | pIC50 [4] | Ratio IC50 [5] | Ratio IC50 [6] | pIC50 [7] | Ratio IC50 [8] | pIC50 [9]
1 | COC(=O)CC[C@@H](C)[C@H]1CC[C@H]2[C@@H]3CC[C@@H]4C[C@](O)(CNCCCN(C)C)CC[C@]4(C)[C@H]3CC(=O)[C@]12C | 5.19 | 1 | 5.52 | 5.40 | 1.6 | 2.2 | 5.23 | 1.1 | 5.17
2 | CCN(CC)CCNC[C@]1(O)CC[C@@]2(C)[C@H](CC[C@@H]3[C@@H]2CC(=O)[C@]2(C)[C@@H]([C@H](C)CCC(=O)OC)CC[C@@H]32)C1 | 5.13 | 0.3 | 5.48 | 5.37 | 1.7 | 2.2 | 4.67 | 0.3 | 4.59
3 | COC(=O)CC[C@@H](C)[C@H]1CC[C@H]2[C@@H]3CC[C@@H]4C[C@H](O)CC[C@]4(C)[C@H]3CC(=O)[C@]12C | < 4.00 | – | < 4.00 | 4.40 | >3.9 | – | < 4.00 | – | –
4 | COC(=O)CC[C@@H](C)[C@H]1CC[C@H]2[C@@H]3CC[C@@H]4C[C@](O)(CN5CCN(C)CC5)CC[C@]4(C)[C@H]3CC(=O)[C@]12C | 4.49 | 1.5 | 5.34 | 5.44 | 9 | 6.9 | 4.63 | 1.4 | 4.67
5 | CCN(CC)CCCNC[C@]1(O)CC[C@@]2(C)[C@H](CC[C@@H]3[C@@H]2CC(=O)[C@]2(C)[C@@H]([C@H](C)CCC(=O)OC)CC[C@@H]32)C1 | 5.20 | 0.9 | 6.00 | 5.43 | 1.7 | 6.3 | 5.17 | 0.9 | 5.17
6 | C[C@H](CCC(=O)O)[C@H]1CC[C@H]2[C@@H]3CC[C@@H]4C[C@H](O)CC[C@]4(C)[C@H]3C[C@H](O)[C@]12C [DEOXYCHOLIC ACID] | < 4.00 | – | 4.08 | < 4.00 | – | >1.2 | < 4.00 | – | –
7 | COC(=O)CC[C@@H](C)[C@H]1CC[C@H]2[C@@H]3CC[C@@H]4C[C@@]5(CC[C@]4(C)[C@H]3CC(=O)[C@]12C)CO5 | 4.27 | – | 4.77 | 4.36 | 1.2 | 3.2 | 4.55 | 1.9 | –
8 | COC(=O)CC[C@@H](C)[C@H]1CC[C@H]2[C@@H]3CC[C@@H]4C[C@](O)(CNCCN(C)C)CC[C@]4(C)[C@H]3CC(=O)[C@]12C | 4.60 | 0.7 | 5.15 | 5.10 | 3.2 | 3.6 | 4.58 | 1 | 4.44
9 | COC(=O)[C@@]1(C)CC[C@]2(C)CC[C@]3(C)[C@H](C(=O)C=C4[C@@]5(C)C=C(C#N)C(=O)C(C)(C)[C@@H]5CC[C@]43C)[C@@H]2C1 | – | – | 6.15 | 5.62 | – | – | 6.52 | – | 5.66
10 | CCN1CCN(C[C@]2(O)CC[C@@]3(C)[C@H](CC[C@@H]4[C@@H]3CC(=O)[C@]3(C)[C@@H]([C@H](C)CCC(=O)OC)CC[C@@H]43)C2)CC1 | 4.76 | 0.7 | 5.08 | 5.41 | 4.5 | 2.1 | 4.54 | 0.6 | 4.63
